Measurements taken from article PMC12048447, “PANTAX: a phase Ib clinical trial of the efflux pump inhibitor SCO-101 in combination with gemcitabine and nab-paclitaxel in non-resectable or metastatic pancreatic cancer” (Investigational New Drugs, 2025).

Tests used:
[1] = tested on: PANC-1-Pac cells; assay: MTT cell viability and ZIP synergy in paclitaxel-resistant PANC-1-Pac cells; format: cell-based, human; conditions: for ZIP synergy score with paclitaxel: PANC-1-Pac cells, score above 10 indicates synergy
Text: A paclitaxel-sensitive human PDAC cell line, PANC-1, was obtained (ATCC, CRL-1469) and the derived paclitaxel-resistant PANC-1-Pac cell line was established by gradually increasing concentrations of paclitaxel over a period of 2–4 months. Standard MTT and crystal violet assays were applied to evaluate the effect of treatment with either combinations of SCO-101 and paclitaxel or SRPK1-inhibitor and paclitaxel. Details are presented in the Online Resource.
Statistical analyses were mainly descriptive and included mean, median, range, and 95% CIs. Kaplan–Meier plots were constructed using Stata version 18 (StataCorp, 2023). In the preclinical study, the zero interaction potency (ZIP) synergy score was calculated as described by Yadav et al., to quantify the deviation from the expectation of zero interaction between drugs. A ZIP synergy score above 10 indicates synergy.
A paclitaxel-sensitive human PDAC cell line PANC-1 was obtained (ATCC, CRL-1469) and the derived paclitaxel-resistant PANC-1-Pac cell line was established by gradually increasing concentrations of paclitaxel over a period of 2-4 months. Standard MTT and crystal violet assays were applied to evaluate the effect of treatment with either combinations of SCO-101/paclitaxel or SRPK1 inhibitor/paclitaxel.
The selection began at 1 nM, increased to 2 nM and 4 nM, and ended at 8 nM. For each drug concentration the cells were kept for three passages. To evaluate the effect of the treatment either a Crystal Violet assay or MTT (3-(4,5-dimethylthiazol-2-yl)-2,5-diphenyltetrazolium bromide) assay were applied.
The MTT was conducted according to standard conditions. In short, cells were seeded at a density of 7,000 cells/well into a 96-well. One day after seeding, the cells were experimentally treated. Control conditions consisted of either growth medium (‘untreated’) or DMSO diluted in growth medium. All treatments were performed in triplicates. The cells were then kept in the CO2 incubator at 37 °C for 72 hours and plates were incubated with 100μl 1:10 MTT (0.5 mg/ml dissolved in phosphate buffered saline) for 3 hours and hereafter stopped using 100μl/well stop buffer (50g Sodium Dodecyl Sulphate, 245 mL MiliQ H2O, 5mL 1.0 N HCl was added to dissolve the formazan crystals overnight. Optical densities were measured at 570 and 670 nm.
Experiments with 4 different concentrations of either SCO-101 or paclitaxel and their combinations were applied to test for synergy among these two compounds in both the PANC-1 parental and -Paclitaxel resistant cells. SCO-101 was applied in 10, 20, 40 and 50 µM whereas paclitaxel was tested in 5, 10, 15 and 20 nM for a total of 144 h, where drug was only present in the first 72h (sFig 2). The SRPK1 inhibitor SPHINX31 was tested at 0.1; 0.5; 1 and 5 µM. The SRPK1 inhibitor SRPIN was tested at 1; 5; 10 and 50 µM. Both inhibitors were tested in combination with 5, 10, 15 and 20 nM Paclitaxel.
PANC-1-Pac cells treated with paclitaxel and SRPIN340 with four different concentrations of each for a total of 144 hours. Cell viability was evaluated by MTT assays and reported as percentage of untreated control (medium). Error bars indicate percentage standard deviation.

[2] = tested on: PDAC patients; design: method as in PMID 16034525; conditions: clinical phase II study; cited from earlier work
[3] = tested on: patients with metastatic PDAC; design: method as in PMID 24131140; conditions: MPACT phase III; cited from earlier work
[4] = tested on: PDAC patients; design: method as in PMID 20107864; conditions: phase II trial; cited from earlier work

Compound: O=C(Nc1cc(C(F)(F)F)ccc1N1CCCCC1)c1ccncc1 [SRPIN340]
- ZIP synergy score with paclitaxel ([1]; SRPIN340 + paclitaxel, 72 h with drug + 72 h fresh media): 21.4

Compound: Cc1ccc(-c2cc(C(F)(F)F)nn2-c2ccc(S(N)(=O)=O)cc2)cc1 [celecoxib]
- effect when combined with Gem and cisplatin [2]: no apparent effect

Compound: Nc1ccn([C@@H]2O[C@H](CO)[C@@H](O)C2(F)F)c(=O)n1 [Gem, gemcitabine]
- median overall survival (mOS) [3]: 6.7 months
- objective response rate (ORR) [3]: 7%

Compound: O=c1c(-c2ccc(O)cc2)coc2cc(O)cc(O)c12 [genistein]
- effect when added to erlotinib and Gem [4]: no clear effect on survival

Compound: CC(=O)O[C@H]1C(=O)[C@@]2(C)[C@H]([C@H](OC(=O)c3ccccc3)[C@]3(O)C[C@H](OC(=O)[C@H](O)[C@@H](NC(=O)c4ccccc4)c4ccccc4)C(C)=C1C3(C)C)[C@]1(OC(C)=O)CO[C@@H]1C[C@@H]2O [paclitaxel]
- effect on PANC-1-Pac cells (cell viability), drug alone ([1]; 72 h with drug + 72 h fresh media): dose-dependent effect
- resistant phenotype to paclitaxel relative to parental PANC-1 control cell line ([1]; PANC-1-Pac vs PANC-1, MTT, 72 hours): five times higher

Compound: O=C(Nc1cc(C(F)(F)F)ccc1N1CCN(Cc2ccccn2)CC1)c1ccc(-c2ccncc2)o1 [SPHINX31]
- ZIP synergy score with paclitaxel ([1]; SPHINX31 + paclitaxel for 144 h): 57.037
